Data set [1] deals with PAEC-VEGF-Matrigel implants. As to conditions: 250 mg/kg/dose p.o. QD for 6 days, nude mice, p<0.05.
Data set [2] concerns human umbilical vein endothelial cells (HUVECs). In words: Capillary tube formation by HUVECs on Matrigel in vitro. As to conditions: for inhibition of complete capillary tube formation relative to vehicle-treated control cultures: 18 h incubation.
The test system of data set [3] is SVR angiosarcoma xenografts.
Data set [4] deals with rat aortic ring explant cultures. As to conditions: for inhibition of microvessel growth: day 8; for inhibition of microvessel growth relative to vehicle-treated control cultures: day 8 (peak of microvessel growth), serum-free EBM.

Where two headings read alike, the source gives them in different places.

For `Cc1c(-c2cnccn2)ssc1=S` [Oltipraz, 5-(2-pyrazinyl)-4-methyl-1,2-dithiol-3-thione], the “reduction in neovascularization (hemoglobin content) relative to TW:PG vehicle-treated control mice” value in data set [1] amounted to 42%. Moreover, the “inhibition of complete capillary tube formation relative to vehicle-treated control cultures” value in data set [2] (4 μM) is given as 23%; in data set [2] (40 μM, p<0.05), 62%; in data set [2] (100 μM, p<0.05), 52%. Moreover, the “cytotoxicity to human endothelial cells in culture” value in data set [2] (4, 40 and 100 μM) is “absence of cytotoxicity”. The “morbidity or mortality of treated mice” value in data set [3] (250 mg/kg/dose p.o. QD for 10 days) is given as “absence of apparent morbidity or mortality”. In addition, in data set [3] (250 mg/kg/dose p.o. QD, as early as day 4 of dosing, p<0.005), the “inhibition of tumor growth” value is reported as “significant inhibition of tumor growth”. Besides, the “maximum inhibition of tumor volume relative to TW:PG vehicle-treated mice” value in data set [3] (250 mg/kg/dose p.o. QD, day 10 of dosing, p<0.001) came to 81%. Further, the “inhibition of microvessel growth” value in data set [4] (0.4 μM) and in data set [4] (4 μM) was “not inhibitory” throughout. Besides, the “inhibition of microvessel growth relative to vehicle-treated control cultures” value stood at 50% in data set [4] (40 μM, p<0.05) and 95% in data set [4] (100 μM, p<0.01).
Turning to `CO[C@@H]1[C@H](OC(=O)NC(=O)CCl)CC[C@]2(CO2)[C@H]1[C@@]1(C)O[C@@H]1CC=C(C)C` [TNP470], the “maximum reduction in SVR tumor volume relative to vehicle-treated control mice” value in data set [3] (30 mg/kg/dose s.c. Q2D×3, by day 10) came out at 80%.

The record behind these values is patent US7452884B2, “Methods for inhibiting angiogenesis” (Fox Chase Cancer Center, priority 2001, dated 2008).
